{
  "source": "patent US9333233B2",
  "about": "“Methods and compositions for the delayed treatment of stroke” (TARIX PHARMACEUTICALS LTD., priority 2014, dated 2016)",
  "assay_type_in_all_cases": "in vivo",
  "key": {"[1]": {"test_system": "rat Transient Middle Cerebral Artery Occlusion (tMCAO) model", "assay": "Cylinder test of motor function in rat tMCAO stroke model", "conditions": "Example 2; 50 μg/kg SC daily from day 29; day 57 (day 26 all animals ~0.3; vehicle day 57 ~0.4)", "protocol": "Transient middle cerebral artery occlusion was performed according to the method described R. Schmid-Eisaesser et al. Briefly, the right CCA (Common Carotid Artery) was exposed through a midline neck incision and carefully dissected free from surrounding nerves and fascia —from its bifurcation to the base of the skull. The occipital artery branches of the ECA (External Carotid Artery) were then isolated, and these branches were dissected and coagulated. The ECA was dissected further distally and coagulated along with the terminal lingual and maxillary artery branches, which was then divided. The ICA (Internal Carotid Artery) was isolated and carefully separated from the adjacent vagus nerve, and the pterygopalatine artery was ligated close to its origin with a 5-0 nylon suture (SMI, Belgium). […]\nThe number of wall contacts performed independently with the left and right forepaw were counted and noted up to a total of 20 wall contacts per animal per session, and only supporting contacts were counted (i.e., full appositions of the paws with open digits to the cylinder walls)."}, "[2]": {"test_system": "rat Transient Middle Cerebral Artery Occlusion (tMCAO) model", "assay": "Body swing test in rat tMCAO stroke model", "protocol": "(§1) Transient middle cerebral artery occlusion was performed according to the method described R. Schmid-Eisaesser et al. Briefly, the right CCA (Common Carotid Artery) was exposed through a midline neck incision and carefully dissected free from surrounding nerves and fascia —from its bifurcation to the base of the skull. The occipital artery branches of the ECA (External Carotid Artery) were then isolated, and these branches were dissected and coagulated. The ECA was dissected further distally and coagulated along with the terminal lingual and maxillary artery branches, which was then divided. The ICA (Internal Carotid Artery) was isolated and carefully separated from the adjacent vagus nerve, and the pterygopalatine artery was ligated close to its origin with a 5-0 nylon suture (SMI, Belgium). Next a 4-0 silk suture was tied loosely around the mobilized ECA stump, and a 4 cm length of 4-0 monofilament nylon suture (the tip of the suture was blunted by using a flame, and the suture was coated with polylysine, prior to insertion) was inserted through the proximal ECA into the ICA and thence into the circle of Willis, effectively occluding the MCA. The surgical wound was closed and the animals were returned to their cages to recover from anesthesia. One hour and a half after occlusion rats were re-anesthetized, the monofilament was withdrawn to allow reperfusion, the surgical wound was closed and rats were returned to their cages.\nAnimals were also subjected to a body swing test. Each rat was held approximately one inch from the base of its tail. It was then elevated to an inch above a surface of a table. The rat was held in the vertical axis, defined as no more than 10° to either the left or the right side. A swing was recorded whenever the rat moved its head out of the vertical axis to either side. Before attempting another swing, the rat had to return to the vertical position for the next swing to be counted, Twenty (20) total swings were counted. A normal rat typically has an equal number of swings to either side. Following focal ischemia, the rat tends to swing to the contralateral side (left side in this Example). Body swing scores were expressed as a percentage of […] over total swings.\nAnimals were also subjected to a body swing test as described in Example 1 on days 29, 43, 50, 57, 64 and 71.\nAnimals were also subjected to a body swing test as described in Example 1 on days 29, 43, 50, 57, 64, 71, 78 and 85."}, "[3]": {"test_system": "rat Transient Middle Cerebral Artery Occlusion (tMCAO) model", "assay": "Neuroscore (Modified Neurological Rating Scale, mNRS) in rat tMCAO stroke model", "protocol": "as §1\nAnimals were subjected to the mNSS test (Neuroscore) at Day 2, 24 hours post reperfusion. Only animals with an overall score of ≧10 were included in this Example.\nEach animal was also subjected to a neuroscore test. The Modified Neurological Rating Scale (mNRS), or Neuroscore, was performed before the operation, on Day 2 and on Day 15, Day 22, Day 29, Day 36 Day 43 and Day 50. The individual making the behavioral assessments was unaware of the drug/dose given (blind test). A total Neuroscore of 18 was possible, with higher scores correlating to worse functioning.\n(§2) As in Example 1, each animal was subjected to a neuroscore test. The Modified Neurological Rating Scale (mNRS), or Neuroscore, was performed before the operation as described in Example 1 on day 2, day 29, day 43, day 50, day 57, day 64 and day 71. The individual making the behavioral assessments was unaware of the drug/dose given (blind test).\nas §2, with “Examples 1 and 2,” for “Example 1,”, “64, day 71. Day 78,” for “64”, “85.” for “71.”"}, "[4]": {"test_system": "rat Transient Middle Cerebral Artery Occlusion (tMCAO) model", "assay": "Stepping test (forelimb akinesia) in rat tMCAO stroke model", "protocol": "as §1\nAnimals were tested for forelimb akinesia in a stepping test (ST). The animal was held by its hind limbs fixed with one hand and the forelimb not to be monitored with the other, while the unrestrained fore-paw touched the table. The number of adjusting steps were counted while the animal is moved, sideways along the table surface (85 cm in approximately five seconds), in the forehand & backhand direction for both forelimbs.\nAnimals were also tested for forelimb akinesia in a stepping test (ST) as described in Example 1 on days 29, 43, 50, 57, 64 and 71.\nAnimals were also tested for forelimb akinesia in a stepping test (ST) as described in Example 1 on days 29, 43, 50, 57, 64, 71, 78 and 85."}, "[5]": {"test_system": "rat Transient Middle Cerebral Artery Occlusion (tMCAO) model", "assay": "Limb placement test in rat tMCAO stroke model", "protocol": "as §1\nAnimals were subjected to a limb placement test. The limb placing tests were divided into both forelimb and hindlimb tests. For the forelimb-placing test, the examiner held the rat close to a tabletop and scored the rat's ability to place the forelimb on the tabletop in response to whisker, visual, tactile or proprioceptive stimulation. Similarly, for the hindlimb placing test, the examiner assessed the rat's ability to place the hindlimb on the tabletop in response to tactile and proprioceptive stimulation. Separate sub-scores are obtained for each mode of sensory input and added to give total scores (for the forelimb placing test: 0=normal, 12=maximally impaired; for the hindlimb placing test: 0=normal; 6=maximally impaired). Scores were given in half-point increments (see below).\nForelimb placing test (0-12);\nVisual placing (forward (0-2), sideways (0-2))\nTactile placing (dorsal (0-2), lateral (0-2))\nProprioceptive placing (0-2)\nAnimals were also subjected to a limb placement test as described in Example 1 on days 29, 43, 50, 57, 64 and 71.\nAnimals were also subjected to a limb placement test as described in Example 1 on days 29, 43, 50, 57, 64, 71, 78 and 85."}, "[6]": {"test_system": "rat Transient Middle Cerebral Artery Occlusion (tMCAO) model", "assay": "Blood vessel diameter (Flow-R Laser Doppler) in rat tMCAO stroke model", "protocol": "as §1\n(§3) Evaluation of the blood flow in the brain cortex and vessel constriction was carried out using a Flow-R Laser Doppler system, in which intracranial blood flow and vessel diameter (constriction/dilation) was monitored."}, "[7]": {"test_system": "rat Transient Middle Cerebral Artery Occlusion (tMCAO) model", "assay": "Blood flow in the brain cortex (Flow-R Laser Doppler) in rat tMCAO stroke model", "conditions": "for enhanced blood flow as compared to vehicle controls: Example 1 first phase, day 50", "protocol": "as §1, §3"}, "[8]": {"conditions": "Example 3, SC daily from day 29, TXA127 100-1,000 μg/kg, TXA302 1-500 μg/kg, by day 43"}, "[9]": {"conditions": "Example 3, SC daily from day 29, TXA127 100-1,000 μg/kg, TXA302 1-500 μg/kg, by day 43, maintained through day 85"}, "[10]": {"conditions": "Example 3, SC daily from day 29, TXA127 100-1,000 μg/kg, TXA302 1-500 μg/kg, by day 43, maintained through Day 85"}, "[11]": {"conditions": "Example 3, SC daily from day 29, TXA127 100-1,000 μg/kg, TXA302 1-500 μg/kg, by day 43, maintained or improved through day 85"}, "[12]": {"conditions": "Example 1 second phase, 500 ug/kg SC from day 51, measured day 108"}},
  "data": [
    {"substance": "Ala^1-Arg^2-Val^3-Ser^4-Ile^5-His^6-Cys^7 (ARVSIHC) [TXA302, angiotensin (1-7) peptide]", "values": [
      {"measurement": "cylinder test ratio of left paw to right paw contacts", "setting": "[1]", "value": "~0.75"},
      {"measurement": "performance in body swing test", "setting": "[2]; Example 2, 50 μg/kg SC daily from day 29, by day 50, maintained through Day 71", "value": "statistically significant improvement in performance"},
      {"measurement": "performance in body swing test", "setting": "[2]; [8]", "value": "statistically significant improvement in performance"},
      {"measurement": "neuroscore as compared to vehicle control animals", "setting": "[3]; Example 2, 50 μg/kg SC daily from day 29 (28 days post-tMCAO), by day 43, maintained through day 71", "value": "statistically significant reduction in neuroscore"},
      {"measurement": "neuroscore as compared to vehicle control animals", "setting": "[3]; [9]", "value": "statistically significant reduction in neuroscore"},
      {"measurement": "performance in stepping test as compared to vehicle control animals", "setting": "[4]; Example 2, 50 μg/kg SC daily from day 29, by day 43, maintained through Day 71", "value": "significant improvement in performance"},
      {"measurement": "performance in stepping test as compared to vehicle control animals", "setting": "[4]; [10]", "value": "significant improvement in performance"},
      {"measurement": "performance in limb placement test as compared to vehicle control animals", "setting": "[5]; Example 2, 50 μg/kg SC daily from day 29, by day 43, maintained or improved through day 71", "value": "statistically significant improvements in performance"},
      {"measurement": "performance in limb placement test as compared to vehicle control animals", "setting": "[5]; [11]", "value": "statistically significant improvements in performance"}
    ]},
    {"substance": "Asp^1-Arg^2-Val^3-Tyr^4-Ile^5-His^6-Pro^7 (DRVYIHP; listed as Homo sapiens) [TXA127]", "values": [
      {"measurement": "improvement in blood vessel diameter as compared to vehicle controls", "setting": "[6]; Example 1 first phase, continuous infusion via Alzet pump, day 50", "value": "~40", "unit": "%"},
      {"measurement": "enhanced blood vessel diameter, larger than vehicle control animals", "setting": "[6]; Example 1 first phase, subcutaneously administered, each treatment group (100, 300, 500 μg/kg), day 50", "value": "approximately 20%"},
      {"measurement": "vessel diameter as compared to vehicle control group", "setting": "[6]; [12]", "value": "improved"},
      {"measurement": "performance in body swing test", "setting": "[2]; Example 1 first phase, 100, 300, 500 μg/kg SC or Alzet, started 24 hours after tMCAO, by day 15, statistical significance by day 22 in some groups, day 29 in all treatment groups", "value": "improvement in performance"},
      {"measurement": "performance in body swing test", "setting": "[2]; Example 1 second phase, 500 ug/kg SC daily from day 51, as early as day 58, maintained throughout observation period", "value": "trend toward improved performance"},
      {"measurement": "performance in body swing test", "setting": "[2]; [8]", "value": "statistically significant improvement in performance"},
      {"measurement": "neuroscore as compared to vehicle control animals", "setting": "[3]; Example 1 first phase, 100, 300, 500 μg/kg SC daily or Alzet pump, started 24 hours after tMCAO, all treatment groups by day 15, maintained through day 50", "value": "statistically significant reduction in neuroscore"},
      {"measurement": "neuroscore as compared to vehicle control animals", "setting": "[3]; Example 1 second phase, 500 ug/kg SC daily, first treatment day 51 after tMCAO, by day 65", "value": "statistically significant improvement"},
      {"measurement": "neuroscore as compared to vehicle control animals", "setting": "[3]; [9]", "value": "statistically significant reduction in neuroscore"},
      {"measurement": "performance in stepping test as compared to vehicle control animals", "setting": "[4]; Example 1 first phase, 100, 300, 500 μg/kg SC or Alzet, started 24 hours after tMCAO, all treatment groups by day 22", "value": "significant improvement in performance"},
      {"measurement": "performance in stepping test as compared to vehicle control group", "setting": "[4]; Example 1 second phase, 500 ug/kg SC daily from day 51, by day 65, increasing significance by day 86", "value": "statistically significant improvement in performance"},
      {"measurement": "performance in stepping test as compared to vehicle control animals", "setting": "[4]; [10]", "value": "significant improvement in performance"},
      {"measurement": "enhanced blood flow as compared to vehicle controls", "setting": "[7]; continuous infusion via Alzet pump", "value": "~30", "unit": "%"},
      {"measurement": "enhanced blood flow as compared to vehicle controls", "setting": "[7]; subcutaneously administered, each treatment group", "value": "~35", "unit": "%"},
      {"measurement": "blood flow ratio as compared to vehicle control group", "setting": "[7]; [12]", "value": "improved"},
      {"measurement": "performance in forelimb placement test as compared to vehicle control", "setting": "[5]; Example 1 first phase, 100, 300, 500 μg/kg SC or Alzet, started 24 hours after tMCAO, all treatment groups by day 15, continued through day 50", "value": "statistically significant improvements in performance"},
      {"measurement": "performance in forelimb placement test", "setting": "[5]; Example 1 second phase, 500 ug/kg SC daily from day 51, beginning on day 72, trend as early as day 58", "value": "statistically significant improvement in performance"},
      {"measurement": "performance in limb placement test as compared to vehicle control animals", "setting": "[5]; [11]", "value": "statistically significant improvements in performance"}
    ]}
  ]
}
